From US8609715B2, “Heteroarylcarboxylic acid ester derivative” (Ajinomoto Co., Inc., priority 2009, dated 2013) come the findings set out here.

Molecules are shown by their SMILES. Counter-ions that a name gives are not always drawn.

Chain of recombinant human enteropeptidase (P98073 whole entry): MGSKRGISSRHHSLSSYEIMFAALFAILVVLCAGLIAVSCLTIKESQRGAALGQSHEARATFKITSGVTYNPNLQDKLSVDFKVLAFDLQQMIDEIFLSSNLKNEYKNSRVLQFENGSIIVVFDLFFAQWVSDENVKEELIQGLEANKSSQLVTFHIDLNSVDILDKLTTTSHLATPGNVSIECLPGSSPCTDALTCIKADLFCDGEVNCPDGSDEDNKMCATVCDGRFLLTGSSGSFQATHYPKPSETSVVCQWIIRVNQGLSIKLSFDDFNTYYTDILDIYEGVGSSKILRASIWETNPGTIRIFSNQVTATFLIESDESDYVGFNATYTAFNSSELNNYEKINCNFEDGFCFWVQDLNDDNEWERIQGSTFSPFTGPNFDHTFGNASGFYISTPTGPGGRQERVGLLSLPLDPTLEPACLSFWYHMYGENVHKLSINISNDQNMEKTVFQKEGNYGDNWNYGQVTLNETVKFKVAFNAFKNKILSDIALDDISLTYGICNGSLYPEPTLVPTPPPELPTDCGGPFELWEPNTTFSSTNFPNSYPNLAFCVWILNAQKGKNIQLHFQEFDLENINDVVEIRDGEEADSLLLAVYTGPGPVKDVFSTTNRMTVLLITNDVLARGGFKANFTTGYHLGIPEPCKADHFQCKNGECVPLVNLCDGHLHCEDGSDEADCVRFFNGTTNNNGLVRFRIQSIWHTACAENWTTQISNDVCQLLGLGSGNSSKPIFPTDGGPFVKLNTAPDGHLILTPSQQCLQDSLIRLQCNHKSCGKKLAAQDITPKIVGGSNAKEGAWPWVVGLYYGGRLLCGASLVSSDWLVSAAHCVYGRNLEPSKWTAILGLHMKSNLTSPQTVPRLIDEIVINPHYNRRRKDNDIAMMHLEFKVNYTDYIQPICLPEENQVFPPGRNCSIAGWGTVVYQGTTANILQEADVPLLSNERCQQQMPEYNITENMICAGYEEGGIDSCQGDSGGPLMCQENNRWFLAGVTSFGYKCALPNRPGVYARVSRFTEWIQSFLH

The test addresses recombinant human enteropeptidase (Homo sapiens (Human), UniProt P98073). Briefly: Measurement of enteropeptidase inhibitory activity. In kind it is biochemical. To be noted: Dixon plot. The protocol:
Measurement of Enteropeptidase Inhibitory Activity
Using a 96 well plate (#3915, Costar), a test compound (25 μL), 400 mM Tris-HCl buffer (pH 8.0, 25 μL) and 0.5 mg/mL fluorescence enzyme substrate (Gly-Asp-Asp-Asp-Asp-Lys-β-Naphtylamide, 25 μL) were mixed, and recombinant human enteropeptidase (R&D Systems, Inc., 25 μL) was added. Using a fluorescence plate reader fmax (Molecular Devices, Inc.), the reaction rate was measured from the time-course changes at excitation wavelength 320 nm and fluorescence wavelength 405 nm. The Ki value was calculated from the concentration of the test compound, reciprocal of reaction rate, and Km value of the enzyme substrate, and by using Dixon plot.
As for `CC(Cc1cc(C(=O)Oc2ccc(C(=N)N)cc2)co1)C(=O)NCP(=O)(O)O` (centres unmarked) [Compound A-64], the Ki worked out at 2.5 nM.

Turning to `CC(Cc1cc(C(=O)Oc2ccc(C(=N)N)cc2)co1)C(=O)N[C@@H](CS(=O)(=O)O)C(=O)O` (some centres unmarked) [Compound A-65], the inhibition constant (Ki) stood at 1 nM.

As to `CC(Cc1cc(C(=O)Oc2ccc(C(=N)N)cc2F)co1)C(=O)N[C@@H](CC(=O)O)C(=O)O` (some centres unmarked) [Compound A-66], the Ki came out at 0.32 nM.

For the compound `CC(Cc1coc(C(=O)Oc2ccc(C(=N)N)cc2)c1)C(=O)N[C@@H](CC(=O)O)C(=O)O` (stereo partly drawn) [Compound A-67, N-[3-[2-(4-amidinophenoxycarbonyl)-furan-4-yl]-2-methylpropanoyl]-L-aspartic acid trifluoroacetic acid salt], the Ki turned out to be 0.52 nM.

For the compound `N=C(N)c1ccc(OC(=O)c2ccc(-c3ccc(C(=O)N[C@@H](CC(=O)O)C(=O)O)cc3)o2)cc1` [Compound A-68, N-{4-[5-(4-amidinophenoxycarbonyl)-furan-2-yl]benzoyl}-L-aspartic acid trifluoroacetic acid salt], the inhibitory constant (Ki) came to 2.2 nM.

On to `N=C(N)c1ccc(OC(=O)c2ccc(-c3ccc(C(=O)NCC(=O)O)cc3)o2)cc1` [Compound A-69], for which the inhibition constant Ki came to 4.7 nM.

Consider `N=C(N)c1ccc(OC(=O)c2ccc(-c3ccc(C(=O)NCP(=O)(O)O)cc3)o2)cc1` [Compound A-70], for which the Ki was 2.7 nM.

For the compound `N=C(N)c1ccc(OC(=O)c2ccc(-c3cccc(C(=O)N[C@@H](CC(=O)O)C(=O)O)c3)o2)cc1` [Compound A-71, N-{3-[5-(4-amidinophenoxycarbonyl)-furan-2-yl]benzoyl}-L-aspartic acid trifluoroacetic acid salt], the Ki came to 1.6 nM.

In the case of `CC(Cc1ccc(C(=O)Oc2ccc(C(=N)N)cc2)o1)C(=O)SC(CC(=O)O)C(=O)O` (stereo not drawn) [Compound A-73, S-{3-[5-(4-amidinophenoxycarbonyl)-furan-2-yl]-2-methylpropionyl}thiomalic acid trifluoroacetic acid salt], the Ki came to 0.88 nM.

As for `CC(Cc1ccc(C(=O)Oc2ccc(C(=N)N)cc2)o1)C(=O)NN(CC(=O)O)CC(=O)O` (centres unmarked) [Compound A-74, (N′-carboxymethyl-{3-[5-(4-amidinophenoxycarbonyl)furan-2-yl]-2-methylpropane}hydrazido)-acetic acid trifluoroacetic acid salt], the Ki worked out at 2.6 nM.

On to `C/C(=C\c1ccc(C(=O)Oc2ccc(C(=N)N)cc2)s1)C(=O)NCC(=O)O` [Compound B-2], for which the Ki was found to be 9.29 nM.

For the compound `C/C(=C\c1ccc(C(=O)Oc2ccc(C(=N)N)cc2)s1)C(=O)N[C@@H](CO)C(=O)O` [Compound B-3], the Ki was determined as 5.72 nM.

As for `CC(Cc1ccc(C(=O)Oc2ccc(C(=N)N)cc2)s1)C(=O)O` (centres unmarked) [Compound B-6, 3-[5-(4-amidinophenoxycarbonyl)-thiophen-2-yl]-2-methylpropanoic acid trifluoroacetic acid salt], the Ki stood at 1.44 nM.

For the compound `C/C(=C\c1ccc(C(=O)Oc2ccc(C(=N)N)cc2)s1)C(=O)N(CCCO)CCS(=O)(=O)O` [Compound B-7, N-{(2E)-3-[5-(4-amidinophenoxycarbonyl)thiophen-2-yl]-2-methylpropenoyl}-N-hydroxypropyltaurine trifluoroacetic acid salt], the Ki is 2.15 nM.

On to `C/C(=C\c1ccc(C(=O)Oc2ccc(C(=N)N)cc2[N+](=O)[O-])s1)C(=O)O` [Compound B-8], for which the Ki is 0.84 nM.

For `CC(Cc1ccc(C(=O)Oc2ccc(C(=N)N)cc2[N+](=O)[O-])s1)C(=O)N(CCCO)CC(=O)O` (centres unmarked) [Compound B-11, N-{3-[5-(4-amidino-2-nitrophenoxycarbonyl)thiophen-2-yl]-2-methylpropanoyl}-N-(3-hydroxypropyl)glycine hydrochloride], the inhibition constant (Ki) stood at 1.41 nM.

In the case of `CC(Cc1ccc(C(=O)Oc2ccc(C(=N)N)cc2)s1)C(=O)NCC(=O)O` (centres unmarked) [Compound B-12], the inhibition constant (Ki) came out at 2.21 nM.

`CC(Cc1ccc(C(=O)Oc2ccc(C(=N)N)cc2Br)s1)C(=O)O` (centres unmarked) [Compound B-16, 3-[5-(4-amidino-2-bromophenoxycarbonyl)thiophen-2-yl]-2-methylpropionic acid trifluoroacetic acid salt]: the Ki was 0.29 nM.

For the compound `CC(Cc1ccc(C(=O)Oc2ccc(C(=N)N)cc2Cl)s1)C(=O)O` (centres unmarked) [Compound B-17], the inhibitory constant (Ki) amounted to 0.42 nM.

For the compound `CC(Cc1ccc(C(=O)Oc2ccc(C(=N)N)cc2F)s1)C(=O)O` (centres unmarked) [Compound B-19], the Ki came out at 0.42 nM.

With `CC(Cc1ccc(C(=O)Oc2ccc(C(=N)N)cc2F)s1)C(=O)N[C@@H](CC(=O)O)C(=O)O` (some centres unmarked) [Compound B-20], the Ki was found to be 0.28 nM.

Regarding `CC(Cc1ccc(C(=O)Oc2ccc(C(=N)N)cc2F)s1)C(=O)N[C@@H](CCC(=O)O)C(=O)O` (some centres unmarked) [Compound B-21], the Ki was found to be 0.56 nM.

Consider `CC(Cc1ccc(C(=O)Oc2ccc(C(=N)N)cc2F)s1)C(=O)N[C@H](CC(=O)O)C(=O)O` (some centres unmarked) [Compound B-22], for which the Ki was found to be 0.5 nM.

Regarding `CC(Cc1ccc(C(=O)Oc2ccc(C(=N)N)c(F)c2)s1)C(=O)O` (centres unmarked) [Compound B-24], the Ki is 0.49 nM.

Regarding `C[C@H](Cc1ccc(C(=O)Oc2ccc(C(=N)N)cc2F)s1)C(=O)N[C@@H](CC(=O)O)C(=O)O` [Compound B-25, N-{3-[5-(4-amidino-2-fluorophenoxycarbonyl)thiophen-2-yl]-2R-methylpropionyl}-L-aspartic acid trifluoroacetic acid salt], the Ki was determined as 0.79 nM.

For the compound `CC(C)C[C@H](Cc1ccc(C(=O)Oc2ccc(C(=N)N)cc2F)s1)C(=O)N[C@@H](CC(=O)O)C(=O)O` [Compound B-26, N-{3-[5-(4-amidino-2-fluorophenoxycarbonyl)thiophen-2-yl]-2R-isobutylpropionyl}-L-aspartic acid trifluoroacetic acid salt], the Ki was determined as 2.2 nM.

As to `CC(C)C[C@@H](Cc1ccc(C(=O)Oc2ccc(C(=N)N)cc2F)s1)C(=O)N[C@@H](CC(=O)O)C(=O)O` [Compound B-27], the Ki was 0.95 nM.

On to `CCC[C@H](Cc1ccc(C(=O)Oc2ccc(C(=N)N)cc2F)s1)C(=O)N[C@@H](CC(=O)O)C(=O)O` [Compound B-28], for which the Ki amounted to 1.1 nM.

Consider `CCC[C@@H](Cc1ccc(C(=O)Oc2ccc(C(=N)N)cc2F)s1)C(=O)N[C@@H](CC(=O)O)C(=O)O` [Compound B-29], for which the Ki is 0.58 nM.

As to `CC(Cc1ccc(C(=O)Oc2ccc(C(=N)N)c(F)c2)s1)C(=O)N[C@@H](CC(=O)O)C(=O)O` (some centres unmarked) [Compound B-30], the Ki came to 0.52 nM.

`N=C(N)c1ccc(OC(=O)c2ccc(CCC(=O)N[C@@H](CC(=O)O)C(=O)O)s2)c(F)c1` [Compound B-32, N-{3-[5-(4-amidino-2-fluorophenoxycarbonyl)thiophen-2-yl]propanoyl}-L-aspartic acid trifluoroacetic acid salt]: the Ki came out at 0.31 nM.

In the case of `CCCC(Cc1ccc(C(=O)Oc2ccc(C(=N)N)cc2)s1)C(=O)N[C@@H](CC(=O)O)C(=O)O` (some centres unmarked) [Compound B-33], the Ki is 2.8 nM.

In the case of `CC(Cc1ccc(C(=O)Oc2ccc(C(=N)N)cc2F)s1)C(=O)N1CCCC(C(=O)O)C1` (centres unmarked) [Compound B-34], the Ki was determined as 2.2 nM.

`CC(Cc1ccc(C(=O)Oc2ccc(C(=N)N)cc2F)s1)C(=O)N[C@@H](CO)C(=O)O` (some centres unmarked) [Compound B-35]: the Ki was 0.4 nM.

In the case of `N=C(N)c1ccc(OC(=O)c2ccc(CCC(=O)N[C@H](CC(=O)O)C(=O)O)s2)c(F)c1` [Compound B-36], the Ki amounted to 0.51 nM.

As to `N=C(N)c1ccc(OC(=O)c2ccc(CCC(=O)N(CCC(=O)O)CC(=O)O)s2)c(F)c1` [Compound B-37], the inhibition constant (Ki) is 0.5 nM.

As to `C=CCN(CC(=O)O)C(=O)CCc1ccc(C(=O)Oc2ccc(C(=N)N)cc2F)s1` [Compound B-38, N-{3-[5-(4-amidino-2-fluorophenoxycarbonyl)thiophen-2-yl]propionyl}-N-allylglycine trifluoroacetic acid salt], the Ki came to 0.75 nM.

Regarding `CC(Cc1ccc(C(=O)Oc2ccc(C(=N)N)cc2)s1)C(=O)N[C@@H](CS(=O)(=O)O)C(=O)O` (stereo partly drawn) [Compound B-39, N-{3-[5-(4-amidinophenoxycarbonyl)-thiophen-2-yl]-2-methylpropanoyl}-L-cysteic acid trifluoroacetic acid salt], the Ki came out at 0.95 nM.

Take `CC(Cc1ccc(C(=O)Oc2ccc(C(=N)N)cc2)s1)C(=O)NCP(=O)(O)O` (centres unmarked) [Compound B-40, N-{3-[5-(4-amidinophenoxycarbonyl)-thiophen-2-yl]-2-methylpropanoyl}aminomethylphosphonic acid trifluoroacetic acid salt]: the Ki came out at 2 nM.

In the case of `CC(Cc1ccc(C(=O)Oc2ccc(C(=N)N)cc2F)s1)C(=O)N[C@@H](CS(=O)(=O)O)C(=O)O` (some centres unmarked) [Compound B-41], the Ki was 0.27 nM.

For the compound `CC(Cc1ccc(C(=O)Oc2ccc(C(=N)N)cc2F)s1)C(=O)NCP(=O)(O)O` (centres unmarked) [Compound B-42], the Ki stood at 0.37 nM.

Regarding `CC(Cc1ccc(C(=O)Oc2ccc(C(=N)N)cc2Cl)s1)C(=O)NCP(=O)(O)O` (centres unmarked) [Compound B-43], the Ki was 0.42 nM.

With `CC(Cc1ccc(C(=O)Oc2ccc(C(=N)N)cc2Cl)s1)C(=O)N[C@@H](CS(=O)(=O)O)C(=O)O` (some centres unmarked) [Compound B-44], the Ki was found to be 0.21 nM.

Take `CC(CCC(=O)O)Cc1ccc(C(=O)Oc2ccc(C(=N)N)cc2)s1` (centres unmarked) [Compound B-47]: the inhibition constant (Ki) was found to be 2.5 nM.

`CC(CCC(=O)O)Cc1ccc(C(=O)Oc2ccc(C(=N)N)cc2F)s1` (centres unmarked) [Compound B-48]: the inhibition constant (Ki) amounted to 0.88 nM.

`CC(CCC(=O)N[C@@H](CC(=O)O)C(=O)O)Cc1ccc(C(=O)Oc2ccc(C(=N)N)cc2F)s1` (some centres unmarked) [Compound B-49]: the Ki is 0.41 nM.

For the compound `CC(CCC(=O)N[C@@H](CC(=O)O)C(=O)O)Cc1ccc(C(=O)Oc2ccc(C(=N)N)cc2)s1` (some centres unmarked) [Compound B-50], the Ki was determined as 0.89 nM.

In general, Ki refers to the equilibrium dissociation constant of an inhibitor or competing ligand from its target.
